Reference: ChEMBL document CHEMBL3507680, “University of Dundee, Gates Library screen for HepG2 cell viability”

assay: Human HepG2 cell viability assay in 384 well format; type: toxicity, cell-based; set-up: dose 125 nL, time 70.5 hour; concentration not given beside the values; settings: HepG2 cells, read-out: Inhibition

Compound | cytotoxicity at 70.5 h
Cc1cc(C)n(CC2CCCCN2CC(=O)Nc2nccs2)n1 (centres undefined) | -5.53%
O=C(O)[C@@H]1CN(Cc2ccc3nsnc3c2)C[C@H]1c1cccnc1 | 1.8%
CN1C[C@@H](N)C[C@H]1C(=O)N1CCC(CCCc2ccccc2)CC1 | -0.968%
O=c1c(NCCc2ccc(O)cc2)c(NCc2ccccn2)c1=O | 6.43%
c1cc(NCc2ccncc2)nc(C2CCCN2)c1 (centres undefined) | 2.66%
Cc1cccnc1CN1CCN(C[C@]2(O)CCCN3CCCC[C@@H]32)CC1 | -6.65%
O=S(=O)(NCC1CCN(c2cnccn2)CC1)C1CC1 | 30.4%
CCNC(=O)C1CCN(c2cc(CC)nc3ccnn23)C1 (centres undefined) | 15.1%
CCCn1ccnc1CN1CCCC(O)(CN2CCCC2)C1 (centres undefined) | -2.63%
c1ccc(CCN2CCCC2c2cncc(Nc3nncs3)n2)cc1 (centres undefined) | 10.6%
COCCCN1CCCCC12CC(=O)N(Cc1ccccn1)C2 (centres undefined) | -1.98%
CCN(CC)CCn1cc(NC(=O)Nc2ccccc2OC)cn1 | -11.6%
Cc1nc(C)n(CC2CCCCN2CC(=O)N(C)Cc2ccco2)n1 (centres undefined) | -1.35%
O=C(CCc1ccc(=O)[nH]n1)N1CCCC(COc2ccc(F)cc2)C1 (centres undefined) | -1.69%
Cc1nn(C)cc1-c1cc(C(F)F)nc2sc(C(N)=O)c(N)c12 | 7.12%
O=C(Cc1ccc(F)cc1Cl)N1C[C@@H](CN2CCC(O)CC2)[C@@H](CO)C1 | -3.43%
CC(C)N(C)Cc1cncc2c1CCN(Cc1cccs1)C2 | -3.46%
CCC(C)N(Cc1sccc1C)C(=O)c1ccc2cccnc2n1 (centres undefined) | -11.7%
CC(O)CN1CCC(=O)N(Cc2ccccc2)Cc2ccccc21 (centres undefined) | 21.2%
COCC(=O)N1CC[C@@H](O)[C@@H]1Cc1ccccc1 | 5.48%
Cc1ccoc1C(=O)N1CCCC2(CCCN2S(C)(=O)=O)C1 (centres undefined) | -3.55%
Cc1occc1C(=O)NCC(=O)NCCOc1ccc2c(c1)CCC2 | -10.4%
O=C(Nc1cccnc1)[C@@H]1C[C@H]2OCC[C@H]2N(Cc2ccsc2)C1 | 0.225%

Compound | cytotoxicity at 70.5 h
CC(=O)N(C)CC(=O)Nc1cc(C(F)(F)F)c[nH]c1=O | -12.8%
CC(C)c1cc(COCCC(=O)O)no1 | -6.18%
CCS(=O)(=O)N1CC[C@H](OC)[C@@H]1Cc1ccncc1 | 3.22%
CC[C@@]1(O)CCN(C(=O)CCNC(=O)c2ccc(F)cc2)C[C@H]1O | -5.99%
O=C(Nc1ncnc2c1CCC2)c1ccc2c(c1)OCO2 | 1.01%
CCNC(=O)CNC(=O)c1nc(C2CC2)n(-c2ccccc2Cl)n1 | -2.36%
Nc1ncccc1CN1C[C@@H]2CC[C@H](C1)N(CC1CC1)C2=O | 28%
CC(C)n1cnnc1CN(C)C1CCCNC1 (centres undefined) | -10.1%
Cc1csc(N2CCCN(C(=O)c3cnns3)CC2)n1 | 31.6%
Cc1n[nH]c(C2CN(Cc3csc(C4CC4)n3)CCO2)n1 (centres undefined) | -7.97%
COc1cc(CNCC(O)c2cccc(F)c2)cc2c1OCO2 (centres undefined) | 1.4%
CC(=O)c1cc(CN2C[C@@H](N(C)C)[C@H](C(C)C)C2)cs1 | 8.63%
CC(=O)N[C@H]1CN(S(=O)(=O)N(C)Cc2ccccc2)C[C@@H]1C1CC1 | -2.36%
Cc1nccc(CN2CC[C@H](Oc3cccc(F)c3)[C@@](C)(O)C2)n1 | -3.99%
Cc1noc(C2CCN(Cn3cc(Cl)cn3)CC2)n1 | -4.35%
CN(C)C(C(=O)N1CC(c2ccccn2)C1)c1ccc2c(c1)OCO2 (centres undefined) | -3.16%
COc1ccc(-c2ccccc2CCN)c(OC)c1OC | 6.2%
O=C(NCC1CC1)C1CCC2(CCN(C(=O)c3ccoc3)CC2)O1 (centres undefined) | -20%
Cn1cc(Br)cc(NC(=O)Cc2cccs2)c1=O | 17.9%
O=C(Nc1ccnc(OC2CCOC2)c1)c1ccccc1Cl (centres undefined) | -4.06%
CCN(C(=O)C(C)C)C(c1cccnc1)c1ccc2c(c1)CCO2 (centres undefined) | 18.4%
CCC(CO)N(Cc1ccccn1)Cc1c[nH]nc1-c1ccc(F)cc1 (centres undefined) | -6.02%
OCCC1CN(c2nc(-c3cccnc3)nc3c2CCNCC3)CCO1 (centres undefined) | -1.49%

Compound | cytotoxicity at 70.5 h
O=C(NCCCn1ccnn1)C1CCCN(C2CCCC2)C1 (centres undefined) | -1.79%
COc1ccc(-c2noc(C(N)CCSC)n2)cc1 (centres undefined) | 23.9%
Cc1nnc(NC(=O)NCc2cc(F)cc(F)c2)s1 | -14.2%
COCCNC(=O)NCCS(=O)(=O)N1CCN(c2cccc(C)c2)CC1 | -12.5%
Cc1nc(N2CCOCC2)nc2c1COCC21CCN(CC2CC2)C1 (centres undefined) | 8.58%
Cc1noc([C@@H]2CC[C@@H]3[C@@H](CCN3S(C)(=O)=O)O2)n1 | -16.7%
O=C(c1cc(=O)[nH][nH]1)N1CCCC2(CCC(=O)N(C3CCCC3)C2)C1 (centres undefined) | -5.45%
CCNC(=O)NC(=O)CNc1cc(C(=O)OC)cc(C(F)(F)F)c1 | -3.94%
N#CC1(C(=O)NCC2CCC3(CCNCC3)O2)CC1 (centres undefined) | 20%
CCCN(Cc1ccccc1O)S(=O)(=O)N(C)CC | -6.19%
CC(=O)N1CCC(c2nn(C)c3nccnc23)C1 (centres undefined) | -5.3%
Cc1oc(-c2cccc(F)c2F)nc1CN(CCO)C(C)C | -8.53%
Cc1csc([C@@H]2C[C@@H]3CCN(Cc4cc(C)on4)C[C@H]3O2)n1 | -6.2%
O=C(COCC(F)(F)C(F)F)N1CCC2(CCCN(CCO)C2=O)C1 (centres undefined) | -2.98%
Cc1cc(Cl)ccc1C(=O)N1C[C@H](C2CC2)[C@@H](N)C1 | -1.61%
Cc1cc(C)c2c(C(=O)N(C)C)cc(-c3cnc(N)nc3)nc2c1 | -5.25%
CN(CCN1CCCCCC1)Cc1cnc(N)nc1 | -6%
Cc1cccc(OCCNC(=O)CN2CCCC2Cn2cncn2)c1 (centres undefined) | -4.68%
Cc1cc(N2CCCC2c2cncc(N(C)C)n2)ncn1 (centres undefined) | 1.3%
CCOCc1ccc(NC(=O)C(C)C)cc1 | 19.1%
CCC[C@H]1CN(CCCO)C[C@@H]1NC(=O)Cn1cc(C)cn1 | -4.28%
Cn1cccc1C(=O)N1CC[C@@H]2[C@@H]1CC(=O)N2CCN1CCOCC1 | -4.61%
Brc1csc(CNCc2nnc3n2CCC3)c1 | -12.4%

Compound | cytotoxicity at 70.5 h
CCSCc1ccnc(NC(=O)C2CCCO2)c1 (centres undefined) | -2.71%
COc1cccc(-c2noc(C3CCN(CC4CCCCC4)C3)n2)c1 (centres undefined) | 18.2%
CCCn1ncc(CN(Cc2cccnc2)Cc2ccsc2)c1C | 16.8%
CS(=O)(=O)c1ccc(CNC(=O)N2CCC(c3ccccc3)CC2)cc1 | -2.27%
CCc1cnc(N2CCN(CC(=O)Nc3c(C)n[nH]c3C)CC2)s1 | -3.55%
O=C(NCCNc1ncccn1)C1CCCC1 | 15.4%
CCN(CC1CCOC1)C(=O)c1cc(Cl)c2c(c1)OCO2 (centres undefined) | 26.7%
Cc1ccsc1C(=O)NCCCn1nc2ccccn2c1=O | -4.38%
CCc1cnc(CN(C)C2CCN(Cc3nnc(C4CC4)n3C)C2)o1 (centres undefined) | -2.36%
COc1cccc(CNCc2ccc(NC(=O)NC(C)C)cc2)c1 | 7.1%
COc1ccnc(N2Cc3cnc(C(C)(C)C)nc3C2)n1 | 0.551%
O=S(=O)(c1ccc(F)c(F)c1)n1cc(Cl)cn1 | -6.91%
Cc1ccc(C(=O)N(Cc2ccc(F)cc2F)C2CC2)c(=O)[nH]1 | -2.76%
CN(C)C(C(=O)NCc1cc(C(C)(C)C)n[nH]1)c1ccc(F)cc1 (centres undefined) | -4.44%
CN(C)CCOc1ccc(CNC(=O)c2cccc(Cl)c2Cl)cc1 | 8.38%
C[C@@H]1CN(Cc2cccc(F)c2)C[C@]12CCN(Cc1cccnc1)C2=O | -10.4%
O=C(O)c1c(-c2cccnc2)ncc2c1CCN(Cc1cccnc1)C2 | -5.73%
O[C@H]1CN(Cc2ccnc(N3CCCC3)n2)CC[C@@]12CCCO2 | -9.21%
CC(=O)N1CCC(C(=O)NC2CCc3nccn3C2)CC1 (centres undefined) | -97.6%
O=C1NC(c2ccccc2)=N[C@@]12CC[C@@H]1CN(CC3CCOCC3)C[C@@H]12 | 23.3%
O=C(NCCNC1CCCC1)c1cccs1 | -6.72%
CCS(=O)(=O)N1CCc2nc(C3CCN(C(=O)C4CC4)C3)nc(O)c2C1 (centres undefined) | -1.94%
CC(C)c1cc(NC(CO)CO)n2nccc2n1 | -10.2%

Compound | cytotoxicity at 70.5 h
Cc1oc(C(=O)O)cc1S(=O)(=O)Nc1cc(Br)ccc1F | -7.4%
Nc1nccnc1CC1CCCN(Cc2cccc3[nH]ccc23)C1 (centres undefined) | 0.122%
O=C(Cc1cn2ccsc2n1)N1CCCC(n2cncn2)C1 (centres undefined) | 0.86%
Cc1ncc(CN)c(-c2cn(C)c3ccccc23)n1 | -7.92%
CNC(=O)[C@@H](CC(C)C)N1CCC[C@H]1C(=O)N(C)Cc1ccccc1 | -7.93%
Cc1ccc(NC(=O)c2cccc(N(C)C)c2)nc1 | -8.66%
COc1nc(C)ccc1CNc1cc(N2CCCC2CO)ncn1 (centres undefined) | 7.33%
CCc1nccn1C1CCCN(C(=O)c2cn3c(C)cccc3n2)C1 (centres undefined) | -3.89%
C[C@@H]1CN(C2CCN(c3ccccc3)CC2)CC[C@@]1(O)C1CCOCC1 | -3.71%
CN1CCN(C(=O)c2cncc(CC3CCCN(C)C3)c2)CC1 (centres undefined) | 24.9%
CCOc1ccc(C2CCCN2Cc2nnnn2C2CC2)cc1 (centres undefined) | 0.0309%
CCN(CC)C1CCN(C(=O)NCc2nncn2CC)CC1 | -0.0969%
CN1CCN(Cc2cnc3n2CCN(C(=O)c2ccccn2)C3)CC1 | -12.3%
CCc1ccc(C(=O)N2CCN(CC(C)O)CC2)o1 (centres undefined) | 2.04%
Cc1nc(C)c(COc2ccc(N(C)S(C)(=O)=O)cc2)s1 | 2.74%
Cn1nccc1CN1CCOC(c2cccc(-c3cncnc3)n2)C1 (centres undefined) | 14.3%
O=C(NCC1CCN(c2ncccn2)CC1)c1cnccn1 | -12.6%
COc1ccc(-n2cccn2)cc1S(=O)(=O)N1C[C@H](C2CC2)[C@@H](N)C1 | -3.3%
c1ccc(-n2ccc(CNCC3CCCN3c3cccnn3)n2)cc1 (centres undefined) | 0.819%
Cc1nsc(N2CCN(Cc3cccc(F)c3)CC2)n1 | 0.252%
COc1ccc(C(=O)NS(=O)(=O)c2cc(Cl)sc2Cl)cc1OC(F)F | -3.93%
Cc1ccccc1Cc1nc(CSc2nnc(N)n2C2CC2)no1 | -12.1%
